Laboratory results: the supplement of paper PMC3493320

Tested on: NCI-H295R
Assay: IC50 (antiproliferative, ATP content)
Settings: 48 h
In short: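 Compounds were pin-transferred at 8 final concentrations between 0.6 nM and 46 µM onto adrenocortical carcinoma cells (1500 per well, 1536-well plates) that had been cultured overnight in serum-free DMEM with ITS. Plates then stood 48 h at 37 °C, 5% CO2, and ATP was detected by CellTiter-Glo luminescence. IC50 was derived from logistic fits of normalised signal, and compounds giving no concentration response were noted as above the top dose.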

Row | SMILES | IC50 [µM]
1 | COc1ccc2c3c1O[C@H]1C(=O)CC[C@H]4[C@@H](C2)N(C)CC[C@]314.COc1ccc2c3c1O[C@H]1C(=O)CC[C@H]4[C@@H](C2)N(C)CC[C@]314.O=P(O)(O)O.O=P(O)(O)O.O=P(O)(O)O | > 46
2 | CCCCCCCCCCCC(=O)N(CCO)CCO | > 46
3 | Cl.Clc1ccc(C(OCCN2CCCCC2)c2ccccc2)cc1 (configuration not stated) | > 46
4 | O=C(C)O[C@@H]([C@H]4[N@@+]6(CCCCC6)C)[C@](CC5)(C)[C@](C4)([H])[C@@]3([H])[C@@]5([H])[C@@]2(C)C[C@@H]([C@@H](OC(C)=O)C[C@@]([H])2CC3)N1CCCCC1.[Br-] | > 46
5 | CCC1(CC)C(=O)NC(=O)N(C)C1=O | > 46
6 | O=C(NCNC(=O)NC1C(=O)NC(=O)N1CO)NC1C(=O)NC(=O)N1CO (configuration not stated) | > 46
7 | CC(C)CC(N(C)C)C1(c2ccc(Cl)cc2)CCC1.Cl (configuration not stated) | > 46
8 | N[C@@]([C@H]([C@H]1O)O[C@H]([C@@H]([C@H]1O)O)O)=O | > 46
9 | Cl.Nc1c(Br)cc(Br)cc1CN[C@H]1CC[C@H](O)CC1 | > 46
10 | Nc1ncnc2c1ncn2CCOCP(=O)(O)O | > 46
11 | Nc1ccc(N)cc1 | > 46
12 | O=C(Cn1ccnc1[N+](=O)[O-])NCCO | > 46
13 | O=C1C[N+]([O-])=C(c2ccccc2)c2cc(Cl)ccc2N1 | > 46
14 | Cc1nc2n(c(=O)c1CCN1CCC(c3noc4cc(F)ccc34)CC1)CCCC2 | > 46
15 | COc1cccc([C@@]2(O)CCCC[C@@H]2CN(C)C)c1 | > 46
16 | CN1C(=O)C(C)(C2=CCCCC2)C(=O)N=C1O (configuration not stated) | > 46
17 | CN1[C@@H]2CC[C@H]1C[C@@H](OC(c1ccccc1)c1ccccc1)C2.CS(=O)(=O)O | > 46
18 | CCCCCCCCCCCCCCCCCCO | > 46
19 | CC(C)NC(C)Cc1ccc(I)cc1.Cl (configuration not stated) | > 46
20 | O=C1OC(c2ccc(O)c(S(=O)(=O)[O-])c2)(c2ccc(O)c(S(=O)(=O)[O-])c2)c2c(Br)c(Br)c(Br)c(Br)c21.[Na+].[Na+] | > 46
21 | CCCCCC(C)N.CCCCCC(C)N.O=S(=O)(O)O (configuration not stated) | > 46
22 | CCOCCn1c(N2CCCN(C)CC2)nc2ccccc21.O=C(O)/C=C/C(=O)O.O=C(O)/C=C/C(=O)O | > 46
23 | COc1ccc(OC)c(C(O)C(C)N)c1.Cl (configuration not stated) | > 46

Row | SMILES | IC50 [µM]
24 | NC(=O)OCCCc1ccccc1 | > 46
25 | CC(C)=O | > 46
26 | C[C@@H]1CN([C@H]2CC[C@](C#N)(c3ccc(F)cc3)CC2)CC[C@]1(C(=O)O)c1ccccc1.Cl | > 46
27 | ClC1C(Cl)C(Cl)C(Cl)C(Cl)C1Cl (configuration not stated) | > 46
28 | Nc1nc(Cl)nc2c1ncn2[C@H]1C[C@H](O)[C@@H](CO)O1 | > 46
29 | CC(=O)O[C@H]1CC[C@H]2[C@@H]3CCC4=CC(=O)CCC4=C3C=C[C@]12C | > 46
30 | CCCC(O)C(CC)CO (configuration not stated) | > 46
31 | COC1CC(=C(c2cccs2)c2cccs2)C[N+](C)(C)C1.[Br-] (configuration not stated) | > 46
32 | CO[C@@H]1[C@@H](O[C@@H]2O[C@H](C)[C@@H](O[C@H]3C[C@@](C)(O)[C@@H](O)[C@H](C)O3)[C@H](N(C)C)[C@H]2O)[C@@H](CC=O)C[C@@H](C)[C@@H](O[C@@H]2CC[C@H](N(C)C)[C@@H](C)O2)/C=C/C=C/C[C@@H](C)OC(=O)C[C@H]1O | > 46
33 | O=C/C=C/c1ccccc1 | > 46
34 | CCN(CCO)CCCC(C)Nc1ccnc2cc(Cl)ccc12.O=S(=O)(O)O (configuration not stated) | > 46
35 | O=C1OC2(c3cc(Br)c([O-])cc3Oc3c2cc(Br)c([O-])[c]3[Hg][OH])c2ccccc21.[Na+].[Na+] (configuration not stated) | > 46
36 | O=C1C=C3[C@]([C@@]2(F)[C@@H](O)C[C@@]4(C)[C@](C[C@@]5([H])OC(C)(C)O[C@@]45[C@@](CO)=O)([H])[C@@]([H])2C[C@@H]3F)(C)C=C1 | > 46
37 | O[C@@H]3C\C4=C\C[C@@H]2[C@H](CC[C@]1(C)C(=O)CC[C@H]12)[C@@]4(C)CC3 | > 46
38 | CS(=O)(=O)O.CS(=O)(=O)O.N=C(N)c1ccc(/C=C/c2ccc(C(=N)N)cc2O)cc1 | > 46
39 | NP(N)(=O)NC(=O)c1ccc(F)cc1 | > 46
40 | Cc1cc(O)ccc1Cl | > 46
41 | O=[C@@](OC)[C@H]([C@H]3OC)[C@@]2([H])C[C@](N4C[C@]([H])2C[C@H]3OC(C=CC6=CC(OC)=C(OC)C(OC)=C6)=O)([H])C1=C(CC4)C(C=C5)=C(C=C5OC)N1 | > 46
42 | C[C@H]1O[C@H](O[C@H]2[C@H](O)[C@@H](O)[C@@H](O[C@H]3[C@H](O)[C@@H](O)[C@H](O)O[C@@H]3CO)O[C@@H]2CO)[C@H](O)[C@@H](O)[C@@H]1N[C@H]1C=C(CO)[C@@H](O)[C@H](O)[C@H]1O | > 46
43 | CN(C)C(=O)COC(=O)Cc1ccc(OC(=O)c2ccc(NC(=N)N)cc2)cc1.CS(=O)(=O)O | > 46
44 | NCC[C@H](O)C(=O)N[C@@H]1C[C@H](N)[C@@H](O[C@H]2O[C@H](CN)[C@@H](O)[C@H](O)[C@H]2N)[C@H](O[C@@H]2O[C@H](CO)[C@H](O)[C@H]2O)[C@H]1O.O=S(=O)(O)O.O=S(=O)(O)O | > 46
45 | CN1[C@@H]2CC[C@H]1C[C@@H](OC(=O)C(CO)c1ccccc1)C2 (some centres not stated) | > 46

Second part, the compound after the results:

Row | IC50 [µM] | SMILES
46 | > 46 | O=[N+]([O-])c1cccc(S(=O)(=O)NCCNS(=O)(=O)c2cccc([N+](=O)[O-])c2)c1
47 | > 46 | COc1ncnc(NS(=O)(=O)c2ccc(N)cc2)c1OC
48 | > 46 | Nc1ccc(S(=O)(=O)Nc2ccccn2)cc1
49 | > 46 | Cc1nc(NS(=O)(=O)c2ccc(N)cc2)nc(C)c1Br
50 | > 46 | C\C1=C\N(C(=O)NC1=O)[C@H]2\C=C/[C@@H](CO)O2
51 | > 46 | Cc1ccc(C(=O)c2ccc(CC(=O)[O-])n2C)cc1.O.O.[Na+]
52 | > 46 | O=C(O)c1cc(-c2ccccc2)nc2ccccc12
53 | > 46 | Cl.Cl.O=C(O)COCCN1CCN(C(c2ccccc2)c2ccc(Cl)cc2)CC1 (configuration not stated)
54 | > 46 | CC(C)Cn1cnc2c(N)nc3ccccc3c21
55 | > 46 | CC(CCc1ccccc1)NCC(O)c1ccc(O)c(C(N)=O)c1.Cl (configuration not stated)
56 | > 46 | O=C(C1CCCCC1)N1CC(=O)N2CCc3ccccc3C2C1 (configuration not stated)
57 | > 46 | CS(=O)(=O)Nc1ccc([N+](=O)[O-])cc1Oc1ccccc1
58 | > 46 | OCCOCCN1CCN(C2=Nc3ccccc3Sc3ccccc32)CC1
59 | > 46 | COc1ccc2cc(CCC(C)=O)ccc2c1
60 | > 46 | CCOC(=O)c1ccc(N)cc1
61 | > 46 | CCCCC1=NC2(CCCC2)C(=O)N1Cc1ccc(-c2ccccc2-c2nnn[nH]2)cc1
62 | > 46 | CC(=O)N[C@@H](Cc1ccc(O)cc1)C(=O)O
63 | > 46 | C=1(C(\C(C(=O)OC)=C(/NC=1C)C)c3c2c(non2)ccc3)C(OC(C)C)=O (configuration not stated)
64 | > 46 | Cl.N=C(N)NC(=O)Cc1c(Cl)cccc1Cl
65 | > 46 | Cc1[nH]c(=O)c(C#N)cc1-c1ccncc1
66 | > 46 | CN(C)[C@@H]1C(O)=C(C(N)=O)C(=O)[C@@]2(O)C(O)=C3C(=O)c4c(O)ccc(Cl)c4[C@@H](O)[C@H]3C[C@@H]12.Cl
67 | > 46 | CC(=O)OCC(COC(C)=O)OC(C)=O
68 | > 46 | O=C(O[C@@H]5C4CCN(C5)CC4)N2[C@@H]([C@]3=CC=CC=C3)C1=CC=CC=C1CC2.Cl
69 | > 46 | OC(Cn1cncn1)(Cn1cncn1)c1ccc(F)cc1F

Row | IC50 [µM] | SMILES
70 | > 46 | N[C@H](C(=O)O)[C@@H](O)c1ccc(O)c(O)c1
71 | > 46 | CC(C)CN(C[C@@H](O)[C@H](Cc1ccccc1)NC(=O)O[C@H]1CO[C@H]2OCC[C@H]21)S(=O)(=O)c1ccc(N)cc1
72 | > 46 | Cc1ccc(/C(=C\CN2CCCC2)c2ccccn2)cc1
73 | > 46 | CC(C)C[C@@H](N)C(=O)O
74 | > 46 | NC[C@@H](C1)[C@]1([C@@]2=CC=CC=C2)C(N(CC)CC)=O.Cl
75 | > 46 | O=C(O)COC(=O)Cc1ccccc1Nc1c(Cl)cccc1Cl
76 | > 46 | COC(=O)c1ccccc1O
77 | > 46 | CCc1nnc(NS(=O)(=O)c2ccc(N)cc2)s1
78 | > 46 | CCCC(=O)[O-].[Na+]
79 | > 46 | Cc1[nH]c(=O)c(C#N)cc1-c1ccc2nccn2c1.Cl
80 | > 46 | Cc1c(NC(=O)c2cccnc2)c(=O)n(-c2ccccc2)n1C
81 | > 46 | O=C1c2ccccc2C(=O)C1c1ccc(Cl)cc1
82 | > 46 | O=C([C@H]3N[C@H]([C@](OCC)=O)CCC2=CC=CC=C2)N(CC(O)=O)C[C@H](SC3)[C@@]1=CC=CS1.Cl
83 | > 46 | [C@@]2\1(\C(=C/C(/C=C/1)=O)[C@H](C[C@@H]4[C@@H]2[C@H](C[C@@]3([C@](C(COC(=O)C)=O)(O)CC[C@H]34)C)O)C)C
84 | > 46 | COc1ccc(C(=O)CC(=O)c2ccc(C(C)(C)C)cc2)cc1
85 | > 46 | CCCOC(=O)c1ccc(O)cc1
86 | > 46 | CC(C)[N+](C)(CCOC(=O)C1c2ccccc2Oc2ccccc21)C(C)C.[Br-]
87 | > 46 | Cc1ccnc2c1NC(=O)c1cccnc1N2C1CC1
88 | > 46 | O=C(O)c1cc(N=Nc2ccc(S(=O)(=O)Nc3ccccn3)cc2)ccc1O
89 | > 46 | C[C@]12C=CC(=O)C=C1[C@@H](F)C[C@@H]1[C@@H]2[C@@H](O)C[C@@]2(C)[C@H]1CC[C@]2(O)C(=O)CO
90 | > 46 | [C@]23([C@](OC(c1occc1)=O)([C@H](C)C[C@H]2[C@H]5[C@]([C@H](C3)O)([C@@]\4(\C(=C/C(/C=C/4)=O)CC5)C)Cl)C(=O)CCl)C
91 | > 46 | O=C1OC2(c3ccc([O-])cc3Oc3cc([O-])ccc32)c2ccccc21.[Na+].[Na+]
92 | > 46 | CN1C(C(=O)Nc2ccccn2)C(=O)c2sc(Cl)cc2S1(=O)=O (configuration not stated)
